# Reference: patent publication US9205122B2, “Herbal composition comprising ginger and goldenrod for the treatment of cold and flu” (priority 2009, dated 2015)
# Legend:
# [1] = tested on: Human Influenza Virus A/CA/04/09 H1N1; experiment: organism not typed; type: cell-based; settings: A/CA/04/09, MDCK, 72 h; mix as PL202:PL208
# [2] = tested on: human influenza virus A/WS/33, H1N1; experiment: Plaque inhibition assay, influenza A/WS/33 on MDCK cell monolayer; type: cell-based; settings: 0.05 mg/ml, read-out: inhibition of formation of lysis plaques
# MDCK cells = settings: no virus, 72 h, mix as PL202:PL208
# [3] = tested on: influenza strain A/WS/33 (H1N1); experiment: Mouse influenza infection model (preventive and curative arms); type: in vivo, CD-1 mice; settings: curative arm, oral daily from day 0; Tamiflu 10, Nutracan 350 mg/kg
# Procedure: Ginger, goldenrod and a combination thereof were assayed in a recognized animal model related to the prevention and treatment of the influenza virus (Cottey R, 2001). In this study, the ginger was assayed as a dry plant (rhizome) […] a CO2 extract. However, the relative quantity of the ginger dry plant used was equivalent to the ginger CO2 extract used in Example 1 (equivalent to the dry starting material). The ginger/goldenrod combination that was used also comprised blueberry dry powder. This formulation is named the Nutracan™ formulation and is described in Table II below.
# In this model, CD-1 mice (10 females per group) were inoculated intranasally with the influenza strain A/WS/33 (H1N1) at 1×10^3 PFU as determined in a preliminary study (data not shown). […]
# 1) Seven groups of CD1 mice were randomized based on their weight (n=10). […] Mice were sacrificed when their general state (including abnormal behaviour, determined by a veterinarian) had deteriorated or they had lost more than 20% of their weight.
Structure (SMILES),IC50 [1],inhibition at 50 µg/mL [2],TC50 (MDCK cells),TC90 (MDCK cells),MDD (mean day of death) [3]
NC(=O)c1ncn([C@@H]2O[C@H](CO)[C@@H](O)[C@H]2O)n1 [Ribavirin],5.26 µg/mL,,,,
"CCOC(=O)C1=C[C@@H](OC(CC)CC)[C@H](NC(C)=O)[C@@H](N)C1 [Tamiflu, Oseltamivir phosphate]",0.1 µg/mL,52%,>10.3 µg/mL,>10.3 µg/mL,7.6
